What was measured:
CYP2B6 = assay: CYP phenotyping cocktail clinical study: efavirenz/8-OH-efavirenz metabolic ratio and its association with PCB plasma levels; details: linear regression of MR AUC0–8 h 8-OH-efavirenz/efavirenz (CYP2B6 activity) on PCB plasma concentration
Experimental: The participants were ascertained not to have any acute disease by medical history, physical examination, laboratory screening, including hematological and biochemical blood tests, and a 12-lead electrocardiogram. […] The demographic data of the subjects are summarized in Table 1 in the supplemental data. At the enrollment visit, 2 blood samples (9 ml each) were collected into ethylenediaminetetraacetic acid (EDTA)-containing tubes taken from each subject for analyzing the plasma concentrations of PCB congeners and for pharmacogenetic analysis.
Participants stayed fasted from the evening before until 3 h after drug administration. After that, a meal was provided. Water and juice were permitted but alcoholic and caffeinated beverages were not allowed from the evening before drug administration until the last blood sample was taken on the next day. Venous blood samples (9 ml each) were collected through an intravenous catheter immediately before and 0.25, 0.5, 0.75, 1, 1.5, 2, 2.5, 3, 4, 5, 6, 7, 8, and 24 h after drug administration. Blood was drawn into EDTA-coated tubes, centrifuged at 1500 g for 10 min at 4 °C, and plasma samples were subsequently stored at − 80 °C until further analysis. After completely voiding the bladder immediately before drug administration, the participants collected urine from 0 to 24 h after drug administration. After weighing the collected urine, a 10 ml aliquot of each fraction was taken.
Commercially sourced standards and internal standards were used for quantification (see Supplemental Materials). In brief, 20 µl of the plasma samples were protein-precipitated with 80 µl methanol containing all internal standards or were treated for 16 h at 37 °C with 2 µl β-glucuronidase (1,000,000 Units) for deconjugation before protein precipitation with 78 µl methanol containing internal standards. Samples were centrifuged for 20 min, at 4 °C and 17,000 × g, and 40 µl of the supernatants were diluted with 40 µl LC–MS grade water, centrifuged again for 5 min at 4 °C and 17,000 × g and 50 µl supernatant were transferred to LC–MS vials 5 µl of the samples were injected into the LC–MS system.
An Agilent 1290 Infinity II UHPLC coupled with a SCIEX QTRAP6500 + triple quadrupole mass spectrometer was used. Chromatographic separation was achieved on an Agilent Poroshell 120 EC-C18 (1.9 µm, 2.1 × 50 mm) column with A: 0.1% formic acid in water and B: methanol with a flow rate of 0.7 ml/min and a total run time of 8.5 min. Analytes were eluted using a gradient program. The following gradient steps represent gradual changes in % B over time: 5% B from 0 to 0.2 min, 30% B at 2 min, 34% B at 4.8 min, 95% B at 6.5 min, 95% B at 7.5 min and re-equilibrating to 5% B at 7.7 min and 5%B till 8.5 min. A representative chromatogram is shown in supplemental Fig. 2. The scheduled MRM mode was applied for analyte detection in both positive and negative ESI modes (Supplementary Table 4). Calibration curves were constructed with linear regression using weighted (1/x^2) models (detailed information in supplemental methods).
Partial areas under the plasma concentration–time curves from 0 to 3 h (AUC0–3 h), from 0 to 4 h (AUC0–4 h), and from 0 to 8 h (AUC0–8 h) were calculated based on measured concentrations by the linear trapezoidal rule without extrapolation. […] Metabolic ratios (MR) were calculated by dividing the partial AUC of the metabolite by the respective partial AUC of the parent drug. The MRs were used as biomarkers for the individual CYP activities of the study subjects.

Human CYP1A2 = molecular target: T1, Human CYP1A2 (Homo sapiens, UniProt P05177); assay: In vitro metabolism by CYP1A2 Supersomes; format: in vitro ADME; details: 10 µM substrate, 50 pmol/mL CYP1A2 supersomes, 2 mM NADPH; 1 h (phenacetin), 1 and 4 h (PCB118)
T1 construct: purchased; host or cells: insect cells
T1 sequence (P05177 2-516 limits assumed): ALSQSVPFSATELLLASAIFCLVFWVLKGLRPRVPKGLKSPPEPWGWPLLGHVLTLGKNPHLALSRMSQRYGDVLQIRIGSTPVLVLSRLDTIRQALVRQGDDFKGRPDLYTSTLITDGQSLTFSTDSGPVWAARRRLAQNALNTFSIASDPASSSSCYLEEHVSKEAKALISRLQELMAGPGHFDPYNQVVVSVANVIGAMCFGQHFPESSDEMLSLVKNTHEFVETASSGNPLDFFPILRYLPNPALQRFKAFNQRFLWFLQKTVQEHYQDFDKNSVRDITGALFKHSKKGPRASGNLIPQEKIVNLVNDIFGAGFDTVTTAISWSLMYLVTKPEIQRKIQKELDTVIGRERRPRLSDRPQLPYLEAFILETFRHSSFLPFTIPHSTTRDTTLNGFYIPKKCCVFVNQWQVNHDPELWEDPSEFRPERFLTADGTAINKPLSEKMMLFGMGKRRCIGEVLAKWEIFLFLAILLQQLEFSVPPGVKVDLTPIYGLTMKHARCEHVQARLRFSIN
Experimental: To investigate the metabolism of PCB118 by CYP1A2, incubation assays were conducted using CYP1A2 supersomes in a total reaction volume of 100 µL. Reaction mixtures were assembled on ice. […] Reactions were initiated by the addition of CYP1A2 supersomes.
To assess potential non-enzymatic transformations and confirm NADPH-dependent metabolism, control incubations were performed under the following conditions: buffer and enzyme only (no-substrate control), substrate, buffer, and NADPH without enzyme (no-enzyme control), and substrate, buffer, and enzyme without NADPH (no-NADPH control). Each experimental condition was conducted in triplicate, while control conditions were performed as single replicates.
The resulting supernatants (100 µL) were transferred to LC–MS vials, yielding samples with 80% methanol content for analysis. For the detection of hydroxylated PCB metabolites, reactions were stopped by adding 500 µL methanol, followed by the addition of 50 µL of an internal standard mix (10 ng/mL). Samples were vortexed for 1 min and centrifuged at 4,500 rpm for 10 min. The resulting supernatants were transferred to glass LC vials and evaporated under a nitrogen stream at 45 °C until approximately 50 µL remained. Samples were then reconstituted in 100 µL of 0.1 M ammonium acetate buffer (pH 5.3) before transfer to inserts for LC–MS analysis.
To determine whether PCB118 serves as a substrate for CYP1A2 and could act as a competitive inhibitor for other CYP1A2 substrates, we conducted in vitro metabolism experiments. […] In parallel, CYP1A2-mediated metabolism of PCB118 was assessed. […] The identity of 4-OH-CB107 was verified by comparison with an authentic reference standard, showing identical retention time and spectral characteristics (supplemental Fig. 1).

CYP1A2 mRNA = CYP1A2 mRNA expression in primary human hepatocytes (qRT-PCR); format: cell-based; details: three donors, 48 h exposure, PCB118 0.1–0.5 µM, omeprazole positive control

Clc1ccc(-c2cc(Cl)c(Cl)cc2Cl)cc1Cl [PCB118]
t value (CYP2B6): 1,020
β (standardized regression coefficient) (CYP2B6): 0,255
t value (CYP2B6; PM excl): 0,839
β (standardized regression coefficient) (CYP2B6; PM excl): 0,227
CYP1A2-mediated metabolism of the substrate (Human CYP1A2): catalyzed the hydroxylation of PCB118, leading to the formation of 4-OH-CB107
effect on CYP1A2 mRNA expression (CYP1A2 mRNA): did not significantly alter CYP1A2 mRNA levels

— publication PMC12477080, “Polychlorinated biphenyls (PCBs) interact with drug metabolism in vivo” (Archives of Toxicology, 2025)
